Experiment: xn = mol fraction of the nth substance listed
Settings: 101 kPa, Liquid; for mass density: Vibrating tube method

CCCCCC(C)O (centres undefined) [2-heptanol] + CC(=O)N(C)C
Settings	mass density, 298.15 K [kg/m3]	mass density, 303.15 K [kg/m3]	mass density, 308.15 K [kg/m3]	mass density, 313.15 K [kg/m3]	viscosity, 298.15 K [mPa·s]	viscosity, 303.15 K [mPa·s]	viscosity, 308.15 K [mPa·s]	viscosity, 313.15 K [mPa·s]
x2 = 0	813.2	809.5	805.7	801.5	5.3	4.48	3.68	2.96
x2 = 0.0806	819	814.8	810.8	806.5	4.53	3.75	2.99	2.51
x2 = 0.1595	825	820.7	816.5	812.1	3.77	3.17	2.54	2.13
x2 = 0.2394	831.6	827.1	822.7	818.1	3.11	2.6	2.18	1.82
x2 = 0.3495	841.7	837.1	832.6	827.7	2.46	2.08	1.78	1.48
x2 = 0.4393	850.8	846.2	841.5	836.6	2.07	1.775	1.54	1.28
x2 = 0.559	864.7	859.9	855.1	850.2	1.65	1.436	1.26	1.06
x2 = 0.6494	876.4	871.7	866.8	861.9	1.41	1.219	1.08	0.95
x2 = 0.7393	889.4	884.7	879.9	875.1	1.2	1.09	0.98	0.87
x2 = 0.8494	907.5	902.8	898.1	893.4	1.06	0.97	0.88	0.8
x2 = 0.9393	924.2	919.7	915.3	910.8	0.98	0.906	0.82	0.76

CC(=O)N(C)C [N,N-dimethylethanamide] + CC(C)O
Settings	mass density, 298.15 K [kg/m3]	mass density, 303.15 K [kg/m3]	mass density, 308.15 K [kg/m3]	mass density, 313.15 K [kg/m3]	viscosity, 298.15 K [mPa·s]	viscosity, 303.15 K [mPa·s]	viscosity, 308.15 K [mPa·s]	viscosity, 313.15 K [mPa·s]
x1 = 0.081	796.1	791.8	787.4	782.8	1.68	1.53	1.39	1.22
x1 = 0.16	810.3	806	801.6	797	1.47	1.32	1.23	1.1
x1 = 0.2399	824.2	819.9	815.4	810.9	1.33	1.19	1.11	1
x1 = 0.3499	842.7	838.2	833.8	829.2	1.21	1.08	1.01	0.92
x1 = 0.4399	857.1	852.7	848.2	842.9	1.13	1.03	0.96	0.87
x1 = 0.5598	875.6	871.1	866.7	862.2	1.06	0.97	0.91	0.82
x1 = 0.6496	888.9	884.4	880	875.6	1.02	0.94	0.88	0.8
x1 = 0.7394	901.7	897.2	892.8	888.5	0.99	0.92	0.86	0.78
x1 = 0.8495	916.8	912.4	908	903.7	0.97	0.9	0.84	0.76
x1 = 0.9399	928.8	924.3	920	915.6	0.95	0.89	0.823	0.75
x1 = 1	936.5	932	927.8	923.5	0.94	0.87	0.82	0.75

CCCCC(C)O (centres undefined) [2-hexanol] + CC(=O)N(C)C
Settings	mass density, 298.15 K [kg/m3]	mass density, 303.15 K [kg/m3]	mass density, 308.15 K [kg/m3]	mass density, 313.15 K [kg/m3]	viscosity, 298.15 K [mPa·s]	viscosity, 303.15 K [mPa·s]	viscosity, 308.15 K [mPa·s]	viscosity, 313.15 K [mPa·s]
x2 = 0	810.1	806.1	802.1	798	4.1	3.41	2.82	2.22
x2 = 0.0817	816.9	812.8	808.6	804.3	3.46	2.89	2.42	1.8
x2 = 0.1606	824	819.7	815.4	810.9	2.87	2.41	2.05	1.52
x2 = 0.2405	831.5	827.1	822.7	818.1	2.35	2	1.76	1.33
x2 = 0.3506	842.9	838.3	833.8	829	1.82	1.58	1.44	1.15
x2 = 0.4404	852.9	848.2	843.6	838.8	1.54	1.35	1.25	1.04
x2 = 0.5601	867.5	862.8	858.1	853.3	1.29	1.16	1.06	0.92
x2 = 0.6505	879.6	874.8	870.1	865.4	1.14	1.03	0.94	0.85
x2 = 0.7405	892.6	887.8	883.2	878.4	1.03	0.95	0.87	0.8
x2 = 0.8504	909.9	905.2	900.7	896.2	0.97	0.9	0.82	0.77
x2 = 0.9405	925.4	920.8	916.5	912.2	0.95	0.882	0.81	0.756

Reference: the NIST ThermoML archive (doi:10.1021/je400917j)
